Measured values: patent US20100119646A1, “Dihydroeugenol as Additive for feed” (DSM IP ASSETS B.V., priority 2007, published 2010)
Where two headings read alike, the source gives them in different places.

Assays:
[1] = system: total facultative anaerobic bacteria; test: Gut microflora modulation in vivo, ileo-rectal contents of anastomosed piglets: total facultative anaerobic counts on Brucella agar; settings: 300 ppm in feed; mean CFU per g ileal content dry matter; ten piglets; not significant
[2] = type: in vivo; settings: for FCR (kg/kg) / Feed intake / DWG / DWG relative to basal diet A (100) / FCR relative to basal diet A (100) / Feed intake relative to basal diet A (100): 400 ppm in diet (mixture 1: 150 ppm); for FCR (kg/kg) / Feed intake: mean ± standard deviation of 3 determinations; for DWG: mean ± standard deviation of 19 determinations; for DWG relative to basal diet A (100) / FCR relative to basal diet A (100) / Feed intake relative to basal diet A (100): value in brackets, control A = (100); for improvement of feed conversion ratio versus controls: 400 ppm in diet
[3] = system: total lactic acid bacteria; test: Gut microflora modulation in vivo, ileo-rectal contents of anastomosed piglets: lactic acid bacteria on MRS agar; settings: ten piglets
Enterococcus spp = test: Gut microflora modulation in vivo, ileo-rectal contents of anastomosed piglets: Enterococcus spp on Enterococci agar; settings: 300 ppm in feed; ten piglets
Enterobacteriacae = test: Gut microflora modulation in vivo, ileo-rectal contents of anastomosed piglets: Enterobacteriacae on V.R.B.D agar; settings: mean CFU per g ileal content dry matter, ten piglets, not significant; for total Enterobacteriacae counts decreased relative to the control: 300 ppm in feed
Escherichia coli = test: Gut microflora modulation in vivo, ileo-rectal contents of anastomosed piglets: Escherichia coli counts; settings: mean CFU per g ileal content dry matter, ten piglets, not significant
Staphylococcus spp = test: Gut microflora modulation in vivo, ileo-rectal contents of anastomosed piglets: Staphylococcus spp on Baird Parker agar; settings: 300 ppm in feed; ten piglets
[4] = 300 ppm in feed, mean CFU per g ileal content dry matter, not significant

## Cc1cccc(C)c1O [2,6-dimethylphenol]
[1]
  total facultative anaerobic bacteria counts increased relative to the control: 37%
[2]; day 0-14
  FCR (kg/kg): 1.886 ± 0.06 kg/kg
  Feed intake: 350 ± 5 g/day
  DWG: 186 ± 45 g
  DWG relative to basal diet A (100): (103)
  FCR relative to basal diet A (100): (99)
  Feed intake relative to basal diet A (100): (103)
[2]; day 0-29
  FCR (kg/kg): 1.914 ± 0.053 kg/kg
  Feed intake: 694 ± 27 g/day
  DWG: 272 ± 53 g
  DWG relative to basal diet A (100): (105)
  FCR relative to basal diet A (100): (100)
  Feed intake relative to basal diet A (100): (106)
[3]; 300 ppm in feed
  effect on the total lactic acid bacteria (in words): neutral effect
Enterococcus spp
  effect on the population of Enterococcus spp (in words): negative effect
Enterobacteriacae
  total Enterobacteriacae counts decreased relative to the control: 68%

## Oc1ccc(CC=Cc2ccccc2)cc1 [4-cinnamylphenol]
[2]; day 0-14
  FCR (kg/kg): 1.82 ± 0.058 kg/kg
  Feed intake: 345 ± 42 g/day
  DWG: 193 ± 41 g
  DWG relative to basal diet A (100): (107)
  FCR relative to basal diet A (100): (96)
  Feed intake relative to basal diet A (100): (102)
[2]; day 0-29
  FCR (kg/kg): 1.953 ± 0.048 kg/kg
  Feed intake: 670 ± 72 g/day
  DWG: 262 ± 53 g
  DWG relative to basal diet A (100): (101)
  FCR relative to basal diet A (100): (102)
  Feed intake relative to basal diet A (100): (102)
[3]; [4]
  total lactic acid bacteria counts decreased relative to the control: 22%
Escherichia coli; 300 ppm in feed
  Escherichia coli counts decreased relative to the control: 42%
Enterobacteriacae
  total Enterobacteriacae counts decreased relative to the control: 36%

## O=C1/C(=C/c2ccc(O)c(O)c2)Oc2cc(O)cc(O)c21 [aureusidin]
[2]; day 0-14
  FCR (kg/kg): 1.965 ± 0.21 kg/kg
  Feed intake: 332 ± 52 g/day
  DWG: 189 ± 61 g
  DWG relative to basal diet A (100): (104)
  FCR relative to basal diet A (100): (103)
  Feed intake relative to basal diet A (100): (98)
[2]; day 0-29
  FCR (kg/kg): 1.968 ± 0.018 kg/kg
  Feed intake: 686 ± 72 g/day
  DWG: 275 ± 48 g
  DWG relative to basal diet A (100): (106)
  FCR relative to basal diet A (100): (103)
  Feed intake relative to basal diet A (100): (104)
[3]; 150 ppm in feed, mean CFU per g ileal content dry matter, not significant
  total lactic acid bacteria counts decreased relative to the control: 17%
Escherichia coli; 150 ppm in feed
  Escherichia coli counts decreased relative to the control: 66%
Enterobacteriacae; 150 ppm in feed
  Enterobacteriacae counts decreased relative to the control: 30%

## CCCc1ccc(O)c(OC)c1 [dihydroeugenol, 2-methoxy-4-propylphenol]
Staphylococcus spp
  effect on the population of Staphylococcus spp (in words): neutral effect
[1]
  total facultative anaerobic bacteria counts increased relative to the control: 12%
[2]; day 0-14
  FCR (kg/kg): 1.776 ± 0.034 kg/kg
  Feed intake: 364 ± 46 g/day
  DWG: 208 ± 39 g
  DWG relative to basal diet A (100): (115)
  FCR relative to basal diet A (100): (93)
  Feed intake relative to basal diet A (100): (107)
[2]; day 0-29
  FCR (kg/kg): 1.88 ± 0.08 kg/kg
  Feed intake: 708 ± 85 g/day
  DWG: 285 ± 33 g
  DWG relative to basal diet A (100): (110)
  FCR relative to basal diet A (100): (98)
  Feed intake relative to basal diet A (100): (108)
[2]; first 14 days of the experiment
  improvement of feed conversion ratio versus controls: 7%
[2]; whole observation period (29 days)
  improvement of feed conversion ratio versus controls: 2%
[2]; whole observation period (29 days), dihydroeugenol 400 ppm, mixture 1 150 ppm
  improvement of the daily weight gain comparatively to the non supplemented control: 10%
[3]; [4]
  total lactic acid bacteria counts increased relative to the control: 26%
Enterococcus spp
  effect on the population of Enterococcus spp (in words): neutral effect
Enterobacteriacae
  total Enterobacteriacae counts decreased relative to the control: 67%
